Laboratory results from publication PMC11926411 (Cell Structure and Function, 2019).

Columns and labels:
Ras-PI3K complex = format: cell-based; settings: Cos-1 cells, VN-H-Ras G12V, time-lapse confocal after Vps34-IN1; n=12
Procedure: Imaging of BiFC and FRET, and their data analysis were performed essentially as described previously ([Fujioka et al., 2013]; [Ohba et al., 2003]; [Tsutsumi et al., 2009]). In brief, cells plated on a collagen-coated, 35-mm-diameter glass-base dish were transfected with expression vectors. After 24 hours, cells were serum-starved in phenol red-free DMEM/F12 (Thermo Fisher Scientific) for 4 hours and placed in a stage-top incubation chamber (Live Cell Instrument, Soul, Korea) that was maintained at 37°C. Beginning at 10 min, cells were stimulated with 100 ng/ml EGF. BiFC images were acquired using a spinning disk mode, whereas FRET images were obtained using epifluorescence mode. To represent FRET efficacy, the FRET/CFP emission ratio was calculated as the quotient of background-subtracted FRET and CFP images. To stabilize jittery image stacks of time-lapse data set, ‘Image Stabilizer’ plug-in of ImageJ (https://imagej.nih.gov/ij) was used. MetaMorph software converts image stacks of time-lapse data set into one QuickTime movie.
Vesicles positive for a BiFC signal (from Ras-PI3K complex) or TagRFP (EEA-1) were extracted with the use of the ‘Top Hat’ module of MetaMorph software, and colocalization of the Ras-PI3K complex with EEA-1 was quantified with the use of the ‘measure colocalization’ function of the software.

class III PI3K Vps34 = test: Time-lapse confocal imaging of endosomal markers after Vps34 inhibition; settings: Cos-1 cells, Vps34-IN1 treatment
Text: Cells were imaged with an IX-83 microscope (Olympus, Tokyo, Japan) equipped with a BioPoint MAC6000 filter and shutter control unit (Ludl Electronic Products, Hawthorne, NY, USA), an automated XY-stage (Chuo Precision Industrial, Tokyo, Japan), an sDISK spinning disk confocal microscope (Andor Technology, Belfast, UK), and a Rolera EM-C^2 electron multiplying cooled charge-coupled device camera (QImaging, Surrey, BC, Canada). For epifluorescence microscopy, cells were illuminated with a SOLA Light Engine (Lumencor, Beaverton, OR, USA) and the following excitation and emission filters were used: FF02-438/24 and FF01-483/32 (Semrock, Rochester, NY, USA) for CFP; BP470-490 and BP510-550 (Olympus) for FITC; FF02-438/24 and FF01-542/27 for FRET; and BP520-550 and BA580IF (Olympus) for Alexa Fluor 594 and mRFP. For spinning-disk confocal imaging, cells were illuminated with a four-line (405, 488, 561, and 633 nm) laser module (Spectral Applied Research, Hamilton, ON, Canada) and the following emission filters were used: FF01-483/32 for CFP, FF01-542/27 for FRET, and BA580IF for TagRFP. Typical exposure times for 2×2 binning were 0.3 s. […]
Twenty-four hours after transfection, the cells were subjected to time-lapse confocal microscopy. […] P<0.0001 compared with before treatment, as calculated by repeated-measures ANOVA.

SMILES: CC(C)(O)CNc1ncc(-c2ccnc(Nc3ccnc(Cl)c3)n2)c(CC2CC2)n1 [Vps34-IN1]
- Amount of the Ras-PI3K complex in the endosome (BiFC) (Ras-PI3K complex): partially, but significantly reduced
- Endosomal localization of CFP-tagged Rab5 (class III PI3K Vps34): accumulated in the endosome
- Fluorescence signal in endosomes of RFP-tagged EEA-1 (class III PI3K Vps34): dramatically dispersed
